The subject of one series is human erythrocytes. The series can be described thus: Human blood hemolysis. The class given is cell-based. To be noted: 32 μg/ml. The procedure:
Human blood hemolysis. Hemolytic activity was evaluated as described in a previous study. Briefly, 100 μL of 4% human erythrocytes (Rockland Immunochemicals, Limerick, Pa., USA) was added to 100 μL of 2-fold serial dilutions of compounds in PBS, 0.2% DMSO (negative control), or 2% Triton-X 100 (positive control) in a 96-well plate. The 96-well plate was incubated at 37° C. for 1 h and then centrifuged at 500× g for 5 min. 50 μL of the supernatant was transferred to a fresh 96-well plate, and absorbance of supernatants was measured at 540 nm. Percent hemolysis was calculated using the following equation: (A540 nm of compound treated sample−A540 nm of 0.1% DMSO treated sample)/(A540 nm of 1% Triton X-100 treated sample−A540 nm of 0.1% DMSO treated sample)×100. HC50 (concentration of a compound causing 50% hemolysis) was determined using SigmaPlot 10.0 (Systat Software Inc., San Jose, Calif., USA).

The test system of a further series is HepG2. The series can be described thus: Cytotoxicity (WST-1). Format: cell-based. To be noted: 32 μg/ml. How it is done:
(§1) Cytotoxicity. […] HepG2 and HKC-8 cells were grown in Dulbecco's modified Eagle F-12 media mixed 1:1 with Ham's F-12 (DMEM/F-12, Life Technologies, Carlsbad, Calif., USA) supplemented with 10% FBS and 4 mM L-glutamine at 37° C. in 5% CO2. For cytotoxicity assays, HepG2 or HKC-8 was cultured in 96-well plates in 100 μL/well of the proper media to reach 70-80% confluence. The cells were then treated with a range of concentrations of nTZDpa or its analogs for 72 h. 10 μL of WST-1 (Roche, Mannheim, Germany) was added per well for the last 4 h of the 72 h period. WST-1 reduction was measured at absorbance 450 nm. The percent […] relative to that of the no-treatment control was calculated. The assay was carried out in biological triplicate.
(Formazan colour is commonly taken as a measure of viable cells.)

For a further series, the system named is HKC-8. The series can be described thus: Cytotoxicity (WST-1). Format: cell-based. The conditions noted are these: 32 μg/ml. How it is done:
as §1

The next series relates to S. aureus (MRSA) MW2. The series is described as follows: Minimal inhibitory concentration (MIC) assay, micro-dilution. The class given is cell-based. To be noted: for MIC: Example 5, MRSA MW2. An excerpt:
Bacterial strains, growth conditions, and persister isolation. Methicillin-resistant S. aureus strains, MW2 BAA-1707, ATCC 33591, and JE2, methicillin-susceptible S. aureus strains, NCTC 8325, Newman, and ATCC 29213, vancomycin-resistant S. aureus strain, VRS1, Enterococcus faecium E007, vancomycin-resistant E. faecium strains, C68,^7 WB312, and WC196, Klebsiella pneumoniae WGLW2 (BEI Resources, Manassas, Va., USA), Acinetobacter baumannii ATCC 17978, Pseudomonas aeruginosa PA14, and Enterobacter aerogenes ATCC 13048 were used to test antimicrobial activity (Table 1). S. aureus strains were grown in tryptic soy broth (TSB) (BD, Franklin Lakes, N.J., USA), and E. faecium was grown in brain-heart infusion (BHI) broth (BD, Franklin Lakes, N.J., USA) at 37° C. K. pneumoniae, A. baumannii, P. aeruginosa, and E. aerogenes were grown in Luria Bertani (LB) broth (BD, Franklin Lakes, N.J., USA) at 37° C.
Minimal inhibitory concentration (MIC) assay. The MICS of antibiotics were determined by the standard micro-dilution method recommended by the Clinical and Laboratory Standards Institute. MIC assays were conducted in biological triplicate.
(In general: Broth dilution looks for growth in wells or tubes with falling amounts of substance.)

The next series relates to MRSA MW2. The series is described as follows: SYTOX Green membrane permeability assay. The class given is cell-based, S. aureus. How it is done: SYTOX Green membrane permeability assay. […] The washed cells were adjusted to OD600=0.4 with PBS. SYTOX Green (Molecular Probes, Waltham, Mass., USA) was added to 10 mL of the diluted bacterial suspension to a final concentration of 5 μM and incubated for 30 min at room temperature in the dark. 50 μL of the bacteria/SYTOX Green suspension was mixed with 50 μl of PBS containing twice the desired concentrations of compounds in black, clear-bottom, 96-well plates (Corning no. 3904). Fluorescence was measured at room temperature using a spectrophotometer (SpectraMax M2, Molecular Devices), with excitation and emission wavelengths of 485 nm and 525 nm, respectively. All experiments were conducted in biological triplicate.

The text below walks through data of patent publication US11690824B2, “Antibacterial compounds” (THE GENERAL HOSPITAL CORPORATION, priority 2018, dated 2023).

Values after ≈ are worked out from the molar mass of the structure shown. Where two headings read alike, the source gives them in different places.

Broadly, the MIC is the lowest concentration that inhibits growth of the organism. As to `O=C(O)c1c(Sc2ccccc2)c2ccc(Cl)cc2n1Cc1ccc(Cl)cc1` [Analog 2a], the “hemolysis of human erythrocytes” value in the series on human erythrocytes is recorded as “did not significantly cause hemolysis”. Moreover, the “cell death of HepG2” value in the series on HepG2 is recorded as “did not display a significant level of cytotoxicity”. The “cell death of HKC-8” value in the series on HKC-8 is recorded as “did not display a significant level of cytotoxicity”. Also, in the series with S. aureus (MRSA) MW2, the minimal inhibitory concentration (MIC) entry is on record as “same MIC”.

For `COc1c(C(=O)O)n(Cc2ccc(Cl)cc2)c2ccc(Cl)cc12` [Compound S14, 5-chloro-1-(4-chlorobenzyl)-3-methoxy-1H-indole-2-carboxylic acid], the “concentration inducing SYTOX Green fluorescence” value in the series with MRSA MW2 is 64 µg/mL. For the same molecule, in the series with S. aureus (MRSA) MW2 (Staphylococcus aureus, read-out: MIC), the minimum inhibitory concentration (MIC) was determined as 32 µg/mL (≈ 91.4 µM). Also, the “antibiotic activity / potency relative to nTZDpa” value in the series with S. aureus (MRSA) MW2 (growing S. aureus cells) is reported as “reduction of antibiotic activity”.
